The values below come from US9085576B2 (AMGEN INC., priority 2013, dated 2015).

SMILES strings stand for the structures. Where a name gives a salt, the structure may show the parent alone.

The target of one assay is Cathepsin D (Cat D) (Homo sapiens (Human), UniProt P07339). The assay can be described thus: In vitro enzymatic Cathepsin D (Cat D) FRET assay. The note with it: read-out: CatD IC50. It counts as biochemical.
The next assay has as its target BACE (Homo sapiens (Human), UniProt P56817). Briefly: In vitro BACE cell-based assay (Aβ40 in conditioned medium, sandwich ELISA). For orientation: An ELISA detects its analyte on a solid surface through an enzyme-linked reagent.
In assay [1] the target is Beta Secretase enzyme (BACE) (Homo sapiens (Human), UniProt P56817). Briefly: In vitro enzymatic BACE FRET assay. It is filed as biochemical. The note with it: read-out: BACE1 Enzyme assay IC50.
Sequence of Beta Secretase enzyme (BACE) (P56817 46-501): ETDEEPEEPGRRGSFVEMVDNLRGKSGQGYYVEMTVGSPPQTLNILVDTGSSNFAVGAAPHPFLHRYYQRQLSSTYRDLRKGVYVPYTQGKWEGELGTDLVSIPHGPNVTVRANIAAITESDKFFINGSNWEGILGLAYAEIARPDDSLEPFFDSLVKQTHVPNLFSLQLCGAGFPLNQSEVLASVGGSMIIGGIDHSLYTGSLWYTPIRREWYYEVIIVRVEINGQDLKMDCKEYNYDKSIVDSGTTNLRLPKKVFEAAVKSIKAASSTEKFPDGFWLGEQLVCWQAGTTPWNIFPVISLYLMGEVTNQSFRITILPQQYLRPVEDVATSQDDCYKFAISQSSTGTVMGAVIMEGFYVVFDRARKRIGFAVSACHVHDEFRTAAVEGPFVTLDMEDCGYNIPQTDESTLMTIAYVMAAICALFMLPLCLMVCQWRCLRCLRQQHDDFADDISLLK

Sequence of Cathepsin D (Cat D) (P07339 65-412, species assumed): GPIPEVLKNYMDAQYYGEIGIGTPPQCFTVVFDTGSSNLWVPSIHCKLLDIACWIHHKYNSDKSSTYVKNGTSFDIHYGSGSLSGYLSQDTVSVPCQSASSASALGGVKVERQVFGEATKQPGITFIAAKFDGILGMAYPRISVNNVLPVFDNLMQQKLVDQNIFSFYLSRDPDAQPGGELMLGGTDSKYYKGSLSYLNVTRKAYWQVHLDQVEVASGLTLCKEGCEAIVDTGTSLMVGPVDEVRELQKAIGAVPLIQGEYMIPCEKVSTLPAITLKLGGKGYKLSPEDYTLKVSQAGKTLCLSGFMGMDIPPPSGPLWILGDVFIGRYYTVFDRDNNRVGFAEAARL
Sequence of BACE (P56817 46-501, species assumed): as the sequence (P56817 46-501) above

For orientation: IC50 means the concentration that inhibits the measured activity by half. In the case of `C[C@H](C#N)Oc1ccc(C(=O)Nc2ccc(F)c([C@@]3(C(F)F)N=C(N)O[C@@H]4C[C@@H]43)c2)nc1` (mixture of isomers) [Example 259], the IC50 at Cathepsin D (Cat D) turned out to be 668 µM; against BACE, 0.473 µM; in assay [1], 0.659 µM.
As to `C[C@@H](Nc1ccc(F)c([C@@]2(C(F)F)N=C(N)O[C@@H]3C[C@@H]32)c1)c1ccc(Cl)cn1` (mixture of isomers) [Example 378, (1R,5S,6R)-5-(5-(((R)-1-(5-chloropyridin-2-yl)ethyl)amino)-2-fluorophenyl)-5-(difluoromethyl)-2-oxa-4-azabicyclo[4.1.0]hept-3-en-3-amine and (1R,5S,6R)-5-(5-(((S)-1-(5-chloropyridin-2-yl)ethyl)amino)-2-fluorophenyl)-5-(difluoromethyl)-2-oxa-4-azabicyclo[4.1.0]hept-3-en-3-amine], the IC50 at Cathepsin D (Cat D) was 77.4 µM; at BACE, 2.13 µM; in assay [1], 13.8 µM.
Consider `NC1=N[C@@](c2cc(NC(=O)c3cnc(OCC4CCOC4)cn3)ccc2F)(C(F)F)[C@H]2C[C@H]2O1` (mixture of isomers) [Example 413], for which the IC50 on Cathepsin D (Cat D) was over 400 µM; at BACE, 0.865 µM; in assay [1], 0.145 µM.
Turning to `NC1=N[C@](c2cc(NC(=O)c3ccc(Cl)cn3)ccc2F)(C(F)F)[C@@H]2C[C@@H]2O1` (racemic) [Example 55, N-(3-([1(R,S),5(S,R),6(R,S)]-3-amino-5-(difluoromethyl)-2-oxa-4-azabicyclo[4.1.0]hept-3-en-5-yl)-4-fluorophenyl)-5-chloropicolinamide], the IC50 at Cathepsin D (Cat D) came to 860 µM; against BACE, 0.0431 µM; in assay [1], 0.0362 µM.
Consider `COc1cnc(C(=O)Nc2ccc(F)c([C@]3(C(F)F)N=C(N)O[C@H]4C[C@H]43)c2)c(C)n1` (racemic) [Example 58, N-(3-([1(R,S),5(S,R),6(R,S)]-3-amino-5-(difluoromethyl)-2-oxa-4-azabicyclo[4.1.0]hept-3-en-5-yl)-4-fluorophenyl)-5-methoxy-3-methylpyrazine-2-carboxamide], for which the values for the IC50 (on Cathepsin D (Cat D); at BACE; in assay [1]) were 822 µM, 0.179 µM and 0.158 µM, respectively.
The like results for `Cc1c(C(=O)Nc2ccc(F)c([C@]3(C(F)F)N=C(N)O[C@H]4C[C@H]43)c2)nc2ccc(Cl)cn12` (racemic) [Example 61, N-(3-([1(R,S),5(S,R),6(R,S)]-3-amino-5-(difluoromethyl)-2-oxa-4-azabicyclo[4.1.0]hept-3-en-5-yl)-4-fluorophenyl)-6-chloro-3-methylimidazo[1,2-a]pyridine-2-carboxamide] were, in that order, 1780 µM, 0.0701 µM and 0.167 µM.
For `NC1=N[C@](c2cc(NC(=O)c3ccc(Cl)cn3)cnc2F)(C(F)F)[C@@H]2C[C@@H]2O1` (racemic) [Example 73, N-(5-([1(R,S),5(S,R),6(R,S)]-3-amino-5-(difluoromethyl)-2-oxa-4-azabicyclo[4.1.0]hept-3-en-5-yl)-6-fluoropyridin-3-yl)-5-chloropicolinamide], the IC50 stood at 274 µM on Cathepsin D (Cat D), 0.331 µM on BACE and 0.115 µM in assay [1].
The like results for `NC1=N[C@@](c2cc(NC(=O)c3ccc(Cl)cn3)ccc2Cl)(C(F)F)[C@H]2C[C@H]2O1` (racemic) [Example 97, N-(3-(((1R,S), (5S,R), (6R,S))-3-amino-5-(difluoromethyl)-2-oxa-4-azabicyclo[4.1.0]hept-3-en-5-yl)-4-chlorophenyl)-5-chloropicolinamide trifluoroacetate] were, in that order, 1280 µM, 0.0505 µM and 0.0371 µM.
In the case of `N#Cc1ccc(C(=O)Nc2cc(F)c(Cl)c([C@]3(CF)N=C(N)O[C@H]4C[C@H]43)c2)nc1` (racemic) [Example 136, N-(3-((1R/S,5S/R,6R/S)-3-amino-5-(fluoromethyl)-2-oxa-4-4-azabicyclo[4.1.0]hept-3-en-5-yl)-4-chloro-5-fluorophenyl)-5-cyanopicolinamide], the IC50 on Cathepsin D (Cat D) was determined as 491 µM; against BACE it was 0.0214 µM; in assay [1], 0.12 µM.
The like results for `CSc1c(F)cc(NC(=O)c2ccc(Cl)cn2)cc1[C@@]1(CF)N=C(N)O[C@@H]2C[C@@H]21` (racemic) [Example 141, N-(3-(((1S,R),(5S,R),(6R,S))-3-amino-5-(fluoromethyl)-2-oxa-4-azabicyclo[4.1.0]hept-3-en-5-yl)-5-fluoro-4-(methylthio)phenyl)-5-chloropicolinamide] were, in that order, 655 µM, over 15.6 µM and over 40 µM.
The like results for `COc1cnc(C(=O)Nc2cc(F)c(Cl)c([C@]3(CF)N=C(N)O[C@H]4C[C@H]43)c2)cn1` (racemic) [Example 152, N-(3-([1(S,R),5(R,S),6(S,R)]-3-amino-5-(fluoromethyl)-2-oxa-4-azabicyclo[4.1.0]hept-3-en-5-yl)-4-chloro-5-fluorophenyl)-5-methoxypyrazine-2-carboxamide compound with N-(3-((1S,5R,6S)-3-amino-5-(fluoromethyl)-2-oxa-4-azabicyclo[4.1.0]hept-3-en-5-yl)-4-chloro-5-fluorophenyl)-5-methoxypyrazine-2-carboxamide (1:1)] were, in that order, 404 µM, 0.0476 µM and 0.128 µM.
The like results for `Cc1cc(OC(F)F)cnc1C(=O)Nc1cc(F)c(Cl)c([C@]2(CF)N=C(N)O[C@H]3C[C@H]32)c1` (racemic) [Example 153, N-(3-([1(S,R),5(R,S),6(S, R)]-3-amino-5-(fluoromethyl)-2-oxa-4-azabicyclo[4.1.0]hept-3-en-5-yl)-4-chloro-5-fluorophenyl)-5-(difluoromethoxy)-3-methylpicolinamide compound with N-(3-((1S,5R,6S)-3-amino-5-(fluoromethyl)-2-oxa-4-azabicyclo[4.1.0]hept-3-en-5-yl)-4-chloro-5-fluorophenyl)-5-(difluoromethoxy)-3-methylpicolinamide (1:1)] were, in that order, 555 µM, 0.0762 µM and 0.143 µM.
In the case of `Cc1nc(OCC(F)(F)F)cnc1C(=O)Nc1cc(F)c(Cl)c([C@]2(CF)N=C(N)O[C@H]3C[C@H]32)c1` (racemic) [Example 159, N-(3-([1(S,R),5(R,S),6(S,R)]-3-amino-5-(fluoromethyl)-2-oxa-4-azabicyclo[4.1.0]hept-3-en-5-yl)-4-chloro-5-fluorophenyl)-3-methyl-5-(2,2,2-trifluoroethoxy)pyrazine-2-carboxamide], the figures for the IC50 (on Cathepsin D (Cat D); at BACE; in assay [1]) were 1050 µM, 0.466 µM and 0.226 µM, respectively.
On to `NC1=N[C@](c2cccc(NC(=O)c3ccc(Cl)cn3)c2)(C(F)(F)F)[C@@H]2C[C@@H]2O1` (racemic) [Example 208, N-(3-([1(R,S),5(S,R),6(R,S)]-3-amino-5-(trifluoromethyl)-2-oxa-4-azabicyclo[4.1.0]hept-3-en-5-yl)phenyl)-5-chloropicolinamide], for which the IC50 came to 489 µM at Cathepsin D (Cat D), 3.64 µM against BACE and 0.15 µM in assay [1].
On to `NC1=N[C@](c2cc(NC(=O)c3ccc(Cl)cn3)ccc2F)(C(F)(F)F)[C@@H]2C[C@@H]2O1` (racemic) [Example 218, N-(3-((1(R,S),5(S,R),6(R,S))-3-amino-5-(trifluoromethyl)-2-oxa-4-azabicyclo[4.1.0]hept-3-en-5-yl)-4-fluorophenyl)-5-chloropicolinamide compound], for which the figures for the IC50 (at Cathepsin D (Cat D); on BACE; in assay [1]) were over 400 µM, over 15.6 µM and 0.861 µM, respectively.
Regarding `N#Cc1cnc(C(=O)Nc2ccc(F)c([C@]3(CF)N=C(N)O[C@H]4C[C@H]43)c2)c(Cl)c1` (racemic) [Example 227, N-(3-((1(R,S),5(S,R),6(R,S))-3-amino-5-(fluoromethyl)-2-oxa-4-azabicyclo[4.1.0]hept-3-en-5-yl)-4-fluorophenyl)-3-chloro-5-cyanopicolinamide], the 50% inhibitory concentration (IC50) at Cathepsin D (Cat D) was 2260 µM; against BACE it was 0.0105 µM; in assay [1], 0.0469 µM.
For `Cc1cc(C#N)cnc1C(=O)Nc1cc(F)c(C)c([C@@]2(C(F)F)N=C(N)O[C@@H]3C[C@@H]32)c1` (racemic) [Example 309, N-(3-(((1R,S),(5S,R),(6R.S))-3-amino-5-(difluoromethyl)-2-oxa-4-azabicyclo[4.1.0]hept-3-en-5-yl)-5-fluoro-4-methylphenyl)-5-cyano-3-methylpicolinamide], the IC50 was 421 µM on Cathepsin D (Cat D), 0.0387 µM on BACE and 0.0743 µM in assay [1].
The like results for `N#Cc1ccc(C(=O)Nc2ccc(F)c([C@@]3(C(F)F)N=C(N)O[C@@H]4C[C@@H]43)n2)nc1` (racemic) [Example 330] were, in that order, 139 µM, 0.0326 µM and 0.101 µM.
The corresponding values for `CS(=O)(=O)c1c(F)cc(NC(=O)c2ccc(Cl)cn2)cc1[C@@]1(CF)N=C(N)O[C@@H]2C[C@@H]21` (racemic) [Example 424, N-(3-(((1RS),(5S,R),(6R,S))-3-amino-5-(fluoromethyl)-2-oxa-4-azabicyclo[4.1.0]hept-3-en-5-yl)-5-fluoro-4-(methylsulfonyl)phenyl)-5-chloropicolinamide] are 832 µM, 0.254 µM and 1.03 µM.
Turning to `C#CCOc1cnc(C(=O)Nc2cc(F)c(F)c(C3(CF)N=C(N)O[C@H]4C[C@H]43)c2)cn1` (stereo in doubt) [Example 34, N-(3-((1S,5S,6S)-3-amino-5-(fluoromethyl)-2-oxa-4-azabicyclo[4.1.0]hept-3-en-5-yl)-4,5-difluorophenyl)-5-(prop-2-yn-1-yloxy)pyrazine-2-carboxamide], the results for the IC50 (at Cathepsin D (Cat D); at BACE; in assay [1]) were 623 µM, 1.75 µM and 6.21 µM, respectively.
